Reference: patent publication US7534742B2, “Isoprenoid biosynthesis” (priority 1999, dated 2009)

Target: T1, YgbP (Escherichia coli, UniProt Q46893)
T1 construct: made in house; host or cells: E. coli XL1-Blue, plasmid pNCOygbP (vector pNCO113)
Assay: Screening of 4-diphosphocytidyl-2C-methyl-D-erythritol synthase by spectrophotometric method (coupled pyrophosphate/NADP+ assay, 340 nm)
Assay type: biochemical, E. coli
Settings: 37° C.
Method: Recombinant 4-diphosphocytidyl-2C-methyl-D-erythritol synthase is tested by a spectrophotometric assay at 340 nm, in which the inorganic pyrophosphate formed from 2-C-methyl-D-erythritol 4-phosphate and CTP is used in a cascade of downstream reactions leading to the reduction of NADP^+. Reactions mixtures contained 50 mM Tris hydrochloride pH 8.0, 200 μM 2C-methyl-D-erythritol 4-phosphate, 200 μM CTP, 5 mM MgCl2, 1 mM DTT, 1 μM glucose 1,6-biphosphate, 500 μM UDP-Glucose, 174 μM NADP^+, 0.125 U of UDP-glucose pyrophosphorylase, 0.16 U of phosphoglucomutase, and 1 U of glucose 6-phosphate deydrogenase, various concentrations of D-erythritol 4-phosphate respectively D-ribitol 5-phosphate as shown in Table 4 and 10 μl of enzyme in a total volume of 1 ml. One unit of enzyme activity is defined as the amount of enzyme catalyzing the conversion of 1 μmol of substrate per min at 37° C.

[1] = test compound concentration 0.2 mM
[2] = test compound concentration 1.6 mM
[3] = test compound concentration 0.4 mM
[4] = test compound concentration 0.8 mM
[5] = test compound concentration 3.2 mM

T1 sequence (Q46893 2-236): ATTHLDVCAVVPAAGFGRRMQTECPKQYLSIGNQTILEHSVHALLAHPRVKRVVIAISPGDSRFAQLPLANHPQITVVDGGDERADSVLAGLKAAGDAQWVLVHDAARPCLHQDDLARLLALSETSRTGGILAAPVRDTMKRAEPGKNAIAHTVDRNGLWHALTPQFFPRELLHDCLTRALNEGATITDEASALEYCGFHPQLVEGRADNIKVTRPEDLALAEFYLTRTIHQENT

Compound | specific activity [1] [µmol/min/mg] | specific activity (% of activity at 0 mM test compound) [1] [%] | specific activity [2] [µmol/min/mg] | specific activity (% of activity at 0 mM test compound) [2] [%] | specific activity [3] [µmol/min/mg] | specific activity (% of activity at 0 mM test compound) [3] [%] | specific activity [4] [µmol/min/mg] | specific activity (% of activity at 0 mM test compound) [4] [%] | specific activity [5] | specific activity (% of activity at 0 mM test compound) [5]
O=P(O)(O)OC[C@@H](O)[C@@H](O)[C@@H](O)CO [D-ribitol 5-phosphate] | 16.5 | 102 | 16.9 | 105 |  |  |  |  |  | 
O=P(O)(O)OC[C@@H](O)[C@@H](O)CO [D-erythritol 4-phosphate] | 15.9 | 92 | 5.9 | 34 | 15.9 | 92 | 12.9 | 75 | 0 (0%) μmol min^−1 mg^−1 | 0 (0%)
